Here are results for 1 compound from patent US20260234630A1, “Methods for Treating Multiple Myeloma” (Celgene Corporation, priority 2022, published 2026).

Holding throughout (assay type): cell-based
Assay [1] relates to H929 cells. Briefly: Gene expression changes by Affymetrix microarray in H929 cells. The note with it: POM 1 μM, 24 hour. As to the method: FIG. 1A-1F. Down regulation of UHRF1 transcription by IMiDs correlates with drug sensitivity of multiple myeloma. (1A) Volcano plot of protein expression changes determined by mass spectrometry in H929 cells at 24 hr of treatment with CC-220 (0.1 μM) or DMSO control. X axis, Log2fold change (FC); Y axis, significance,-log 10 [p-value]. […] (1B) Volcano plot of gene expression changes determined by Affymetrix microarray in H929 cells treated with POM (1 μM) or DMSO for 24 hr. X axis, Log2fold change (FC); Y axis, significance,-log 10 [p-value], n=2 technical replicates). […] (1C) Western blot analysis protein expression of UHRF1, Ikaros, Aiolos and ZFP91 in H929 cells treated with 1 μM POM for indicated time. (1D) qRT-PCR analysis of UHRF1 gene expression levels in cells as in (1C). Error bars represent the SEM from duplicate measurements. (1E) Western blot analysis protein expression of UHRF1 and indicated proteins in MM cells treated with DMSO (−) or 1 μM POM (+) for 3 days. GAPDH serves as a loading control. (1F) Thymidine incorporation of various MM cell lines treated with indicated dose of POM for 3 days. Error bars represent the SEM from technical replicates.
Given that UHRF1 has been reported to be oncogenic in other cancer types, including MM (Gu et al., 2020, BMC Biol, 18:33), the functions of UHRF1 in MM and the mechanisms underlying its gene regulation in response to immunomodulator drugs that binds to cereblon was explored.

Assay [2] deals with Aiolos at UHRF1 promoter. Briefly: ChIP-qPCR of Aiolos occupancy at UHRF1 gene. The note with it: H929 cells, 1 μM POM, 24 hr. As to the method: (§1) FIG. 2A-2E. UHRF1 expression is positively regulated by Ikaros and Aiolos in IMiDs sensitive MM cells. (2A) Western blot analysis protein expression of UHRF1, Ikaros, Aiolos, ZFP91 and Cereblon expression in control [shLuciferase (shLuc)] and cereblon knockdown (shCRBN) H929 cells treated with DMSO and 1 μM POM for 3 days. GAPDH, loading control. Arrow head, UHRF1. (2B) qRT-PCR analysis of UHRF1 gene expression levels in cells as in (2A). Data was normalized to ACTB. Error bars represent the SEM of technical duplicates. *** P<0.001 (Two-tailed unpaired Student's t-test). […]
(§2) ChIP-qPCR was performed using ChIP-IT Express Enzymatic kit (Active Motif) according to the manufacture manual with some modifications. […] DNA was purified using a PCR purification kit (Qiagen) and analyzed by qPCR using the Power SYBR Green PCR Master Mix.
(§3) Procedures afterward were performed according to the manufacture manual. Eluted DNA was purified using a PCR purification kit (Qiagen) and analyzed by quantitative real-time PCR on the Viia 7 Real Time PCR System using the Power SYBR Green PCR master mix (Applied Biosystems). Statistical differences were calculated using a […] unpaired Student's t-test.
For orientation: In qPCR the cycle at which signal appears reflects the starting amount.

Assay [3] deals with H3K27ac at UHRF1 TSS. Briefly: ChIP-qPCR of H3K27ac occupancy at UHRF1 gene. The note with it: H929 and MM1.S cells, 1 μM POM, 24 hr. As to the method:
as §1, §2, §3

Assay [4] has as its system H3 and H3K27ac. Put plainly: Western blot of global histone H3 and H3K27ac levels. Conditions: H929 and MM1.S cells, 1 μM POM, 24 hr. As to the method:
FIG. 7A-7B. UHRF1 expression is positively regulated by Ikaros, Aiolos and ZFP91 in MM1.S cells. (7A) Western blot analysis protein expression of UHRF1, Ikaro and Aiolos in stably transduced MM1.S cells after Dox induction (0, 20, or 50 ng/ml) for 3 days of non-target shRNA (shNT) or shRNAs targeting Ikaros (shIKZF1) or Aiolos (shIKZF3). (7B) Western blot analysis histone H3 and H3K27ac levels from H929 and MM1.S cells treated with DMSO or 1 μM POM for 24 hr.
Cells were lysed with cell lysis buffer (50 mM TrisHCl pH7.4, 250 mM NaCl, 0.5% Triton X100, 10% glycerol) supplemented with protease inhibitor cocktail. Cell lysates were subjected to sonication to breakdown nuclei and reduce viscosity caused by released genomic DNA. The protein concentration was measured by a Bradford Protein Assay (Bio-Rad). Samples were mixed with SDS sample buffer at 95° C. for 5 minutes. Whole cell lysates were resolved on NuPAGE™ 4-12% Bis-Tris Midi Protein Gels (Invitrogen) and transferred onto nitrocellulose membranes, which were then subjected to blocking in Intercept (TBS) Blocking Buffer (LI-COR). Proteins of interested were detected incubation with primary antibodies listed below at 4° C. overnight. Then the membrane was incubated with either IRDye 680RD goat anti-Mouse IgG (H+L) or IRDye 800CW goat anti-Rabbit IgG (H+L) (1:10,000; LI-COR). Bends were visualized by Odyssey Imaging System (LI-COR).
Background: In western blotting, separated proteins are transferred to a membrane and probed.

Consider `Nc1cccc2c1C(=O)N(C1CCC(=O)NC1=O)C2=O` (stereo not drawn) [POM, pomalidomide], for which, in assay [1], the “UHRF1 gene expression (microarray)” value is given as “one of the most significantly downregulated genes”; the “expression of interferon response genes IFIT1 and IFIT3” value was “drastic induction”; the “gene expression of cell cycle regulators E2F1, MYB and CDC45” value is on record as “most significantly downregulated genes”. Moreover, the “UHRF1 promoter occupancy of Aiolos” value in assay [2] is “drastically reduced”. Moreover, the “H3K27ac level at the UHRF1 TSS” value in assay [3] is given as “drastically reduced”. Besides, in assay [4], the “global levels of H3 and H3K27ac” value is “not affected”.
